Laboratory results: the NIST ThermoML archive (doi:10.1021/je0502849)
Numbers after ± are expanded uncertainties.

Details: Liquid, Pulse-echo method

CCC(C)C(C)C (stereo not drawn) [2,3-dimethylpentane]
speed of sound [m/s]
Details	293.15 K	303.15 K	313.15 K	323.15 K	333.15 K	343.15 K	353.15 K	363.15 K	373.15 K
100 kPa	1149.5 ± 1.6	1103.2 ± 1.5	1061.2 ± 1.5	1017.4 ± 1.5	973.7 ± 1.5	931 ± 1.5	889.5 ± 1.4	849.4 ± 1.4	808.9 ± 1.4
10000 kPa	1220.2 ± 1.5	1178.6 ± 1.5	1138 ± 1.5	1099.7 ± 1.5	1061.7 ± 1.5	1022.5 ± 1.4	986.1 ± 1.4	950.4 ± 1.4	914.8 ± 1.5
20000 kPa	1284.8 ± 1.5	1245.9 ± 1.5	1207.8 ± 1.5	1171.8 ± 1.5	1136.5 ± 1.4	1101.8 ± 1.4	1067.4 ± 1.4	1035.4 ± 1.4	1003.1 ± 1.4
30000 kPa	1342.3 ± 1.5	1306.5 ± 1.5	1270.7 ± 1.5	1236.2 ± 1.5	1203.1 ± 1.4	1170.5 ± 1.4	1138.8 ± 1.4	1108.4 ± 1.4	1079 ± 1.4
40000 kPa	1396.2 ± 1.5	1361.5 ± 1.5	1327.2 ± 1.5	1294.8 ± 1.5	1263.1 ± 1.4	1232 ± 1.4	1201.8 ± 1.4	1173.6 ± 1.4	1145.4 ± 1.4
50000 kPa	1445.3 ± 1.5	1411.9 ± 1.5	1379.5 ± 1.5	1348.2 ± 1.5	1317.7 ± 1.5	1287.5 ± 1.4	1259.9 ± 1.4	1232.3 ± 1.4	1205.1 ± 1.4
60000 kPa	1491.9 ± 1.5	1458.5 ± 1.5	1428.2 ± 1.5	1397.8 ± 1.5	1368.8 ± 1.5	1339.8 ± 1.4	1312.3 ± 1.4	1286.2 ± 1.4	1260.3 ± 1.4
70000 kPa	1535.2 ± 1.5	1503.4 ± 1.5	1473.4 ± 1.5	1444.3 ± 1.5	1416 ± 1.5	1388.3 ± 1.5	1361.7 ± 1.4	1336.7 ± 1.4	1311.6 ± 1.4
80000 kPa	1576.5 ± 1.5	1545.5 ± 1.5	1516.6 ± 1.5	1488.2 ± 1.5	1460.6 ± 1.5	1433.1 ± 1.5	1407.9 ± 1.4	1383.4 ± 1.4	1358.8 ± 1.4
90000 kPa	1616.1 ± 1.5	1585.9 ± 1.5	1557.2 ± 1.5	1529.5 ± 1.5	1502.6 ± 1.5	1476.4 ± 1.5	1451 ± 1.5	1427.8 ± 1.4	1403.8 ± 1.4
100000 kPa	1653 ± 1.6	1623.9 ± 1.5	1595.8 ± 1.5	1569.1 ± 1.5	1542.8 ± 1.5	1516.8 ± 1.5	1492.5 ± 1.5	1469.5 ± 1.5	1446.4 ± 1.5
110000 kPa	1688.6 ± 1.6	1660 ± 1.5	1632.9 ± 1.5	1606.4 ± 1.5	1580.5 ± 1.5	1555.6 ± 1.5	1531.5 ± 1.5	1508.7 ± 1.5	1486.3 ± 1.5
120000 kPa	1723.2 ± 1.6	1694.7 ± 1.6	1668.4 ± 1.5	1642.2 ± 1.5	1617.1 ± 1.5	1592.3 ± 1.5	1569.2 ± 1.5	1546.8 ± 1.5	1524.6 ± 1.5
130000 kPa	1756.3 ± 1.6	1728.8 ± 1.6	1702.5 ± 1.6	1676.9 ± 1.5	1652.2 ± 1.5	1627.9 ± 1.5	1604.7 ± 1.5	1583 ± 1.5	1561.1 ± 1.5
140000 kPa	1788 ± 1.6	1760.4 ± 1.6	1735.5 ± 1.5	1713.3 ± 1.5	1685.7 ± 1.5	1661.8 ± 1.5	1639.3 ± 1.5	1617.8 ± 1.5	1596.4 ± 1.5
150000 kPa	1818.6 ± 1.6	1792.3 ± 1.6	1766.7 ± 1.6	1742.2 ± 1.6	1718.3 ± 1.5	1694.8 ± 1.5	1672.8 ± 1.5	1650.9 ± 1.5	1630.2 ± 1.5

CCCC(C)C [2-methylpentane]
speed of sound [m/s]
Details	293.15 K	303.15 K	313.15 K	323.15 K	333.15 K	343.15 K	353.15 K	363.15 K	373.15 K
100 kPa	1064.6 ± 1.6	1016.5 ± 1.5	971.8 ± 1.5	927.3 ± 1.5	–	–	–	–	–
10000 kPa	1145.5 ± 1.5	1102.8 ± 1.5	1061.7 ± 1.5	1022 ± 1.5	982.1 ± 1.5	943.2 ± 1.4	905 ± 1.4	867.4 ± 1.4	830.7 ± 1.4
20000 kPa	1215.4 ± 1.5	1176 ± 1.5	1138.5 ± 1.5	1101.2 ± 1.5	1065.4 ± 1.4	1030.2 ± 1.4	996.4 ± 1.4	962.8 ± 1.4	931.1 ± 1.4
30000 kPa	1277.6 ± 1.5	1240.8 ± 1.5	1205.5 ± 1.5	1170.8 ± 1.4	1137.2 ± 1.4	1104.8 ± 1.4	1073.6 ± 1.4	1042.9 ± 1.4	1013 ± 1.4
40000 kPa	1334.9 ± 1.5	1299.5 ± 1.5	1265.9 ± 1.5	1233.9 ± 1.4	1201.3 ± 1.4	1170.9 ± 1.4	1141 ± 1.4	1112.8 ± 1.4	1084.6 ± 1.4
50000 kPa	1386.9 ± 1.5	1352.6 ± 1.5	1321.2 ± 1.5	1289.9 ± 1.4	1260.2 ± 1.4	1230.4 ± 1.4	1201.8 ± 1.4	1174.7 ± 1.4	1148.2 ± 1.4
60000 kPa	1434.8 ± 1.5	1403 ± 1.5	1372.2 ± 1.5	1342.1 ± 1.5	1313.1 ± 1.4	1284.6 ± 1.4	1257.8 ± 1.4	1231.7 ± 1.4	1206.3 ± 1.4
70000 kPa	1480.4 ± 1.5	1449.6 ± 1.5	1419.4 ± 1.5	1391.6 ± 1.5	1363.4 ± 1.5	1335.3 ± 1.4	1309.7 ± 1.4	1284.1 ± 1.4	1259.6 ± 1.4
80000 kPa	1523.4 ± 1.5	1492.9 ± 1.5	1464 ± 1.5	1436 ± 1.5	1408.6 ± 1.5	1381.8 ± 1.4	1356.7 ± 1.4	1332.7 ± 1.4	1309 ± 1.4
90000 kPa	1564 ± 1.5	1534.6 ± 1.5	1506.3 ± 1.5	1478.4 ± 1.5	1452.5 ± 1.5	1426.6 ± 1.5	1402.3 ± 1.4	1378.4 ± 1.4	1354.6 ± 1.4
100000 kPa	1602.3 ± 1.5	1573.5 ± 1.5	1546.3 ± 1.5	1519.2 ± 1.5	1493.6 ± 1.5	1468.3 ± 1.5	1444.8 ± 1.4	1421.9 ± 1.4	1399 ± 1.4
110000 kPa	1638.5 ± 1.5	1610.7 ± 1.5	1584.2 ± 1.5	1558.7 ± 1.5	1532.6 ± 1.5	1508.4 ± 1.5	1485.1 ± 1.5	1462.6 ± 1.4	1440.8 ± 1.4
120000 kPa	1674.4 ± 1.5	1646.9 ± 1.5	1620.7 ± 1.5	1595.2 ± 1.5	1570 ± 1.5	1546.2 ± 1.5	1523.3 ± 1.5	1501.1 ± 1.5	1479.6 ± 1.5
130000 kPa	1708.1 ± 1.6	1681.6 ± 1.5	1655.7 ± 1.5	1630.8 ± 1.5	1605.9 ± 1.5	1582.5 ± 1.5	1560 ± 1.5	1538.3 ± 1.5	1517.1 ± 1.5
140000 kPa	1740.8 ± 1.6	1714.3 ± 1.6	1689.6 ± 1.5	1664.2 ± 1.5	1640.4 ± 1.5	1617.2 ± 1.5	1595.2 ± 1.5	1573.9 ± 1.5	1553 ± 1.5
150000 kPa	1771.8 ± 1.6	1746.6 ± 1.6	1721.4 ± 1.6	1696.8 ± 1.5	1673 ± 1.5	1650.2 ± 1.5	1628.8 ± 1.5	1607.8 ± 1.5	1587.5 ± 1.5
